Data from patent US6677310B1, “Ring-expanded nucleosides and nucleotides” (Nabi, priority 1999, dated 2004).
Values after ≈ are worked out from the molar mass of the structure shown. “Also recorded” adds a separate entry of the source.

How the values were obtained:
[1] = system: P3HR-1 strain of EBV; assay: Viral capsid antigen (VCA) / EBV immunofluorescence assay in Daudi cells; assay type: cell-based, Epstein-Barr virus; conditions: for SI (Selectivity Index), Daudi Cells: IC50 (Daudi cells) divided by anti-EBV EC50; for SI (Selectivity Index), Neutral Red Uptake: IC50 (neutral red, stationary HFF) divided by anti-EBV EC50; for SI (Selectivity Index), HFF Cells: IC50 (rapidly growing HFF) divided by anti-EBV EC50; for EC50: human gammaherpesvirus 4, Daudi cells, read-out: Antiviral Activity (EC50), anti-EBV
Description: After virus adsorption, the cells were washed and pelleted, and the supernatant was discarded. The drugs to be tested were serially diluted in RPMI-1640 and added to the appropriate tubes. The cultures were incubated for 2 days in complete medium to allow viral gene expression. Following the 48 h incubation period, a number of cells of each sample were counted and washed in phosphate-buffered saline (PBS), and slides were prepared. The slides were dried overnight. The dried cells were fixed with acetone. A monoclonal antibody to viral capsid antigen (VCA) was then added to the cells, incubated for 30 min at 37° C., and washed in PBS. This was followed by a fluorescein-conjugated goat anti-mouse IgG antibody. The cells were counterstained with. Evans Blue. A total of 500 negative and fluorescence positive cells were counted. The total number of VCA positive cells in the cultures was calculated and EC50 values determined using Microsoft Excel Software.
(§1) Data Analysis: Dose-response relationships were constructed by linearly regressing the percent inhibition of parameters derived in the preceding sections against log drug concentrations. Fifty-percent inhibitory (IC50) concentrations were calculated from the regression lines.

[2] = Cell proliferation assay, rapidly growing HFF cells; assay type: cell-based; conditions: human, rapidly growing human foreskin fibroblast (HFF) cells; for IC50 at 72 h: rapidly growing HFF cells, read-out: Cytotoxicity (IC50), HFF Cells
Description: (§2) The toxicity of Compounds 14-1 and 14-2 was also measured in rapidly growing human foreskin fibroblast (HFF) cells and Daudi cells by cell proliferation assay (National Institute of Allergy and Infectious Diseases (NIAID), NIH, Bethesda, Md.). According to the assay method, the appropriate cells were seeded in six-well plates in MEM containing 10% FBS. Twenty four hours later, the cells were treated with several dilutions of the test compounds covering a range of 0.03-100 μg/ml. The plates were incubated in a CO2 incubator at 37° C. for 72h. The cells were washed after removing the media and subsequently released from the plate wells by the addition of 1 ml of 0.25% trypsin. The contents in the wells were mixed, diluted with Isotone III and counted using a Coulter counter. The CC50 values (concentration of compound giving 50% inhibition of cell proliferation) were calculated by linear regression analysis. Toxicity of Compound 14-1 was also evaluated in bone marrow precursor cells by previously published procedure (Sommadossi, J.-P., et al., Biochem. Pharmacol., 44:1921-1925, 1992).
(§3) (A) Cell Proliferation Assay: Twenty-four hours prior to assay, cells (HFF or Daudi) were seeded in six-well plates at a concentration of 2.5×10^4 cells per well in MEM containing 10% FBS. On the day of the assay, drugs were diluted serially in MEM containing 10% FBS at increments of 1:5 covering a range from […]. For drugs that had to be solubilized in DMSO, control wells receive MEM containing 10% DMSO. The media from the wells was then aspirated, and 2 mL of each drug concentration was added to each well. The cells were incubated in a CO2 incubator at 37° C. for 72 h. At the end of this time, the media-drug solution was removed, and the cells were washed. Trypsin-EDTA (0.25%, 1 mL) was added to each well and incubated until the cells started to come off the plate. The cell-media mixture was then pipeted up and down vigorously to break up the cell suspension and 0.2 mL of the mixture added to 9.8 mL of Isoton III and the cells were counted using a Coulter Counter. Each sample was counted three times with two replicate wells per sample. The IC50 values were calculated using a computer program.

[3] = Cell proliferation assay, rapidly growing Daudi cells; assay type: cell-based; conditions: human; for IC50 at 72 h: rapidly growing Daudi cells, read-out: Cytotoxicity (IC50), Daudi Cells
Description: as §2, §3

[4] = Neutral red uptake assay, stationary HFF cells; assay type: cell-based; conditions: human, read-out: Cytotoxicity (IC50), Neutral Red Uptake
Description: (B) Neutral Red Uptake Assay: Twenty-four hours prior to assay, HFF cells were plated into 96-well plates at a concentration of 2.5×10^4 cells/well. After 24 h, the media was aspirated, and […] of media containing drug was added to the first row of wells and then diluted serially 1:5 using the automated Cetus Liquid Handling System. The plates were then incubated in a Co2 incubator at 37° C. for 7 days. At this time the media/drug was removed, cells were washed, 200 μL/well of 0.01% neutral red in PBS was added, and the mixture was incubated for 1 h. The dye was removed, and the cells were washed using a Nunc Plate Washer. After the wash was removed, […] of 50% ethanol/1% aqueous acetic acid was added. The plates were placed on a rotating shaker for 15 min, and the optical densities were then read at 540 nm using a plate reader.
as §1

[5] = target: T1, adenosine deaminase from calf intestinal mucosa (Bos taurus, UniProt P56658); assay: Adenosine deaminase assay (Example 17); assay type: biochemical; conditions: Lineweaver-Burk plots; with and without preincubation
T1 construct: against adenosine deaminase from calf intestinal mucosa; from tissue; host or cells: calf intestinal mucosa
T1 sequence (P56658 whole entry): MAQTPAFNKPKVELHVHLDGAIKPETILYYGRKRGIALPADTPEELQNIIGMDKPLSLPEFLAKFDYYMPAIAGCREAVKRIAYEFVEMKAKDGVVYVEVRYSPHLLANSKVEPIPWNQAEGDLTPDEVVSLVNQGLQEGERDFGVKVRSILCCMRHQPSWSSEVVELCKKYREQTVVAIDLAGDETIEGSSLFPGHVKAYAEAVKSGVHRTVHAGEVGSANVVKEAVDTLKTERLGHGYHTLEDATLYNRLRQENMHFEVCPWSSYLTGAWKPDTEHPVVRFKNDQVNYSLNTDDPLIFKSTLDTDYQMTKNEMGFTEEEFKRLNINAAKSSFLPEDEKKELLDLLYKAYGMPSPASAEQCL
Description: Inhibition of adenosine deaminase (ADA) by Compound 17-1 and Compound 17-2 (see FIG. 13 for chemical structures; note that structure 1 FIG. 13 is the same as that in figure except that it is written in an anti-conformation in the former) was investigated in vitro against adenosine deaminase from calf intestinal mucosa in a 50 mM phosphate buffer (pH=7.4) at 25° C., by spectro-photometrically monitoring the rate of hydrolysis of substrate adenosine at 265 nm. Stock solutions of the substrate, enzyme, and inhibitors were prepared using a 50 mM phosphate buffer (pH 7.4). The enzyme kinetics was followed by measuring the change in optical density (decrease in absorbance) per minute of the substrate adenosine. By keeping the concentration of the inhibitor constant, and by varying the substrate concentration, a set of kinetic data was obtained. Additional sets of data were generated using different concentrations of the inhibitor. […]
(a) pre-incubation of the enzyme with the inhibitor; here the enzyme (ADA 10 μL) and inhibitor were preincubated for 10 min in a calculated amount of phosphate buffer (50 mM, pH 7.5 ) at 25° C. and the reaction was initiated by the addition of substrate, adenosine, and (b) without preincubation; here the reaction was started by addition of ADA (10 μL) to a mixture of adenosine and inhibitor in the phosphate buffer at 25° C. […]

[6] = target: T2, guanine deaminase (guanase) from rabbit liver (Oryctolagus cuniculus, UniProt G1T386); assay: Guanine deaminase assay (Example 17); assay type: biochemical; conditions: Lineweaver-Burk plots
T2 construct: from tissue; host or cells: rabbit liver
T2 sequence (G1T386 1-454): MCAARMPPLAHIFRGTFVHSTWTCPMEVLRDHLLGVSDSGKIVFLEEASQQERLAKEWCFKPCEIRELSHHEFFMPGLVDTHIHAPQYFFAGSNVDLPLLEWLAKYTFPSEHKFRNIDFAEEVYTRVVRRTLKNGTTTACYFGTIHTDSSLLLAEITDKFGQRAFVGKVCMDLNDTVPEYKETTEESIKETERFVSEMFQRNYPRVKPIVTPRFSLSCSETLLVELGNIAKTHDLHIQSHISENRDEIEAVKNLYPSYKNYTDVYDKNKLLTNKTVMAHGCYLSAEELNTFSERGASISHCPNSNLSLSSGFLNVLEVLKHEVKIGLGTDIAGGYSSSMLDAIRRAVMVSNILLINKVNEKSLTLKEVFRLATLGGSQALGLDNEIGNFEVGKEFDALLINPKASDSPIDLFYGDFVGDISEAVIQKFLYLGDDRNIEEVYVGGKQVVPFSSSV
Description: Stock solutions of the substrate, enzyme, and inhibitors were prepared using a 50 mM Tris-HCl buffer (pH 7.4). The enzyme kinetics was followed by measuring the change in optical density (decrease in absorbance) per minute of the substrate guanine. By keeping the concentration of the inhibitor constant, and by varying the substrate concentration, a set of kinetic data was obtained. Additional sets of data were generated using different concentrations of the inhibitor. The substrate concentration in each assay ranged 6-20 μM; a total of six different concentrations were employed. The inhibitor concentration used in each assay was 30 or 40 μM. The amount of enzyme used in each assay was 0.0076 unit. The Ki for inhibition assays was computed from Lineweaver-Burk plots. The Lineweaver-Burk plot (1/V vs 1/[S]), as well as the linear regression analysis of kinetic data, were performed using the program Quattro Pro (version 6.01) for Windows.™.

Row | EC50 [1] [µg/mL] | inhibition of guanine deaminase (guanase), mode [6] | melting point [°C] | SMILES | SI (Selectivity Index), Daudi Cells [1] | SI (Selectivity Index), Neutral Red Uptake [1] | SI (Selectivity Index), HFF Cells [1] | CC50 at 72 h ([2]; Rapidly growing HFF cells) [µg/mL] | IC50 at 72 h [2] [µg/mL] | CC50 at 72 h ([3]; Rapidly growing Daudi cells) [µg/mL] | IC50 at 72 h [3] [µg/mL] | IC50 at 7 days [4] [µg/mL] | mode of inhibition of adenosine deaminase [5]
1 | 0.8 (≈ 3.55 µM) |  |  | Nc1nc2c(ncn2COCCO)c(=O)[nH]1 [Aciclovir, reference compound] | >62 | >125 | >125 | > 100 | > 100 | > 50 | > 50 | > 100 | 
2 |  | competitive inhibitor |  | N=c1nc(N)c2ncn(COCCO)c2c(N)n1 [Compound 17-2] |  |  |  |  |  |  |  |  | competitive inhibitor; also recorded: reversible inhibitor
3 | 4.1 (≈ 9.39 µM) |  | 170 to 172 | O=C1c2ncn(Cc3ccccc3)c2N(Cc2ccccc2)C(=O)CN1Cc1ccccc1 [Compound 18-1, 3,4,7-Tribenzyl-4,5,7,8-tetrahydro-6H-imidazo[4,5-e][1,4]diazepine-5,8-dione] | >12 | >24 | >24 |  | > 100 |  | > 50 | > 100 | 
4 | 8.3 (≈ 19.5 µM) |  | 239 to 241 | O=C1NCC(=O)N(Cc2ccccc2)c2c1nc(Br)n2Cc1ccccc1 [Compound 18-2, 3,4-Dibenzyl-2-bromo-4,5,7,8-tetrahydro-6H-imidazo[4,5-e][1,4]diazepine-5,8-dione] | >6 | >12 | >12 |  | > 100 |  | > 50 | > 100 | 
